Patent publication EP0377642B1, “HERBICIDES FOR WEED CONTROL IN RICE” (E.I. DU PONT DE NEMOURS AND COMPANY, priority 1987, dated 1989)
Read-outs that look alike come from different tables or passages of the source.

Key:
Assay type in all cases: in vivo
Cyperus iria [1] = experiment: Field test with Bensulfuron methyl in direct seeded rice (Table 10); settings: 10 = complete control
Description: (§1) Methyl 2-[[[[(4-methoxy-6-methyl-1,3,5-triazin-2-yl)amino]carbonyl]amino]sulfonyl]benzoate (Compound 1) and mixtures thereof with other compounds were applied as a spray (using a hand sprayer) to rice (either transplanted or direct seeded) in several rice growing areas in Southeast Asia and in the U.S. Tables 1-28 contain the results of these tests and clearly exemplify the utility of this invention. The details of each application are included in the appropriate table. [drawing 2]

Marsilea crenata = experiment: as above; settings: 10 = complete control
Description: as §1

Sphenoclea zeylanica [2] = experiment: as above; settings: 10 = complete control
Description: as §1

direct seeded rice [3] = experiment: Field test with Bensulfuron methyl in direct seeded rice, yield (Table 10)
Description: as §1

direct seeded rice [4] = settings: for PHYTO at 2WAA: scale 0-10
Description: as §1

Cyperus difformis = experiment: Field test applied at 7 DAS in direct seeded rice (Table 11); settings: scale 0-10
Description: as §1

Sphenoclea zeylanica [5] = experiment: as above; settings: scale 0-10
Description: as §1

Cyperus iria [6] = experiment: Field test applied at 18 DAS in direct seeded rice (Table 12); settings: scale 0-10
Description: as §1

FIMBRISTYLIS MILIACEA = experiment: as above; settings: scale 0-10
Description: as §1

Jussiaea linifolia = experiment: as above; settings: scale 0-10
Description: as §1

Sphenoclea zeylanica [7] = experiment: as above; settings: scale 0-10
Description: as §1

Cyperus iria [8] = experiment: Field test applied at 25 DAS in direct seeded rice (Table 13); settings: scale 0-10
Description: as §1

Sphenoclea zeylanica [9] = experiment: as above; settings: scale 0-10
Description: as §1

direct seeded rice [10] = experiment: Field test applied 7 DAS in direct seeded rice in the Philippines, phytotoxicity (Table 14); settings: 30 DAA
Description: as §1

WEED = experiment: Field test applied 7 DAS in direct seeded rice in the Philippines, weed cover (Table 14); settings: 8.25 G AI/HA; 47 DAA
Description: as §1

SMILES: COC(=O)c1ccccc1CS(=O)(=O)NC(=O)Nc1nc(OC)cc(OC)n1 [Bensulfuron methyl, methyl 2-[[[[[(4,6-dimethoxy-2-pyrimidinyl)amino]carbonyl]amino]sulfonyl]methyl]benzoate]
- WEEDS CONTROL at 4 WAA CI (Cyperus iria [1]; 10 GAI/HA): 2
- WEEDS CONTROL at 4 WAA CI (Cyperus iria [1]; 20 GAI/HA): 8
- WEEDS CONTROL at 4 WAA MC (Marsilea crenata; 10 GAI/HA): 0
- WEEDS CONTROL at 4 WAA MC (Marsilea crenata; 20 GAI/HA): 3.33
- WEEDS CONTROL at 4 WAA SZ (Sphenoclea zeylanica [2]; 10 GAI/HA): 0
- WEEDS CONTROL at 4 WAA SZ (Sphenoclea zeylanica [2]; 20 GAI/HA): 6
- YIELD (direct seeded rice [3]; 10 GAI/HA): 3.04 TONS/HA
- YIELD (direct seeded rice [3]; 20 GAI/HA): 3.34 TONS/HA
- YIELD (direct seeded rice [4]; 7 DAS, 10 GM.A.I./HA): 4.92 TONS/HA
- PHYTO at 2WAA (direct seeded rice [4]; 7 DAS, 10 GM.A.I./HA): 0
- YIELD (direct seeded rice [4]; 7 DAS, 15 GM.A.I./HA): 4.99 TONS/HA
- PHYTO at 2WAA (direct seeded rice [4]; 7 DAS, 15 GM.A.I./HA): 0
- YIELD (direct seeded rice [4]; 7 DAS, 20 GM.A.I./HA): 5.01 TONS/HA
- PHYTO at 2WAA (direct seeded rice [4]; 7 DAS, 20 GM.A.I./HA): 0
- YIELD (direct seeded rice [4]; 7 DAS, 30 GM.A.I./HA): 4.67 TONS/HA
- PHYTO at 2WAA (direct seeded rice [4]; 7 DAS, 30 GM.A.I./HA): 0
- YIELD (direct seeded rice [4]; 18 DAS, 10 GM.A.I./HA): 4.61 TONS/HA
- PHYTO at 2WAA (direct seeded rice [4]; 18 DAS, 10 GM.A.I./HA): 0
- YIELD (direct seeded rice [4]; 18 DAS, 15 GM.A.I./HA): 4.49 TONS/HA
- PHYTO at 2WAA (direct seeded rice [4]; 18 DAS, 15 GM.A.I./HA): 0
- YIELD (direct seeded rice [4]; 18 DAS, 20 GM.A.I./HA): 4.61 TONS/HA
- PHYTO at 2WAA (direct seeded rice [4]; 18 DAS, 20 GM.A.I./HA): 0
- YIELD (direct seeded rice [4]; 18 DAS, 30 GM.A.I./HA): 5.17 TONS/HA
- PHYTO at 2WAA (direct seeded rice [4]; 18 DAS, 30 GM.A.I./HA): 0
- WEED CONTROL at 6 WAA CD (Cyperus difformis; 10 GM.A.I./HA): 10
- WEED CONTROL at 6 WAA CD (Cyperus difformis; 15 GM.A.I./HA): 10
- WEED CONTROL at 6 WAA CD (Cyperus difformis; 20 GM.A.I./HA): 10
- WEED CONTROL at 6 WAA CD (Cyperus difformis; 30 GM.A.I./HA): 10
- WEED CONTROL at 6 WAA SZ (Sphenoclea zeylanica [5]; 10 GM.A.I./HA): 10
- WEED CONTROL at 6 WAA SZ (Sphenoclea zeylanica [5]; 15 GM.A.I./HA): 10
- WEED CONTROL at 6 WAA SZ (Sphenoclea zeylanica [5]; 20 GM.A.I./HA): 10
- WEED CONTROL at 6 WAA SZ (Sphenoclea zeylanica [5]; 30 GM.A.I./HA): 10
- WEED CONTROL at 6 WAA CI (Cyperus iria [6]; 10 GM.A.I./HA): 6.67
- WEED CONTROL at 6 WAA CI (Cyperus iria [6]; 15 GM.A.I./HA): 9.0
- WEED CONTROL at 6 WAA CI (Cyperus iria [6]; 20 GM.A.I./HA): 9.33
- WEED CONTROL at 6 WAA CI (Cyperus iria [6]; 30 GM.A.I./HA): 9.67
- WEED CONTROL at 6 WAA FM (FIMBRISTYLIS MILIACEA; 10 GM.A.I./HA): 10
- WEED CONTROL at 6 WAA FM (FIMBRISTYLIS MILIACEA; 15 GM.A.I./HA): 9.67
- WEED CONTROL at 6 WAA FM (FIMBRISTYLIS MILIACEA; 20 GM.A.I./HA): 10
- WEED CONTROL at 6 WAA FM (FIMBRISTYLIS MILIACEA; 30 GM.A.I./HA): 10
- WEED CONTROL at 6 WAA JL (Jussiaea linifolia; 10 GM.A.I./HA): 8.0
- WEED CONTROL at 6 WAA JL (Jussiaea linifolia; 15 GM.A.I./HA): 7.67
- WEED CONTROL at 6 WAA JL (Jussiaea linifolia; 20 GM.A.I./HA): 9.50
- WEED CONTROL at 6 WAA JL (Jussiaea linifolia; 30 GM.A.I./HA): 8.67
- WEED CONTROL at 6 WAA SZ (Sphenoclea zeylanica [7]; 10 GM.A.I./HA): 5.67
- WEED CONTROL at 6 WAA SZ (Sphenoclea zeylanica [7]; 15 GM.A.I./HA): 6.67
- WEED CONTROL at 6 WAA SZ (Sphenoclea zeylanica [7]; 20 GM.A.I./HA): 5.67
- WEED CONTROL at 6 WAA SZ (Sphenoclea zeylanica [7]; 30 GM.A.I./HA): 9.67
- WEED CONTROL at 6 WAA CI (Cyperus iria [8]; 10 GM.A.I./HA): 9.67
- WEED CONTROL at 6 WAA CI (Cyperus iria [8]; 15 GM.A.I./HA): 9.83
- WEED CONTROL at 6 WAA CI (Cyperus iria [8]; 20 GM.A.I./HA): 10
- WEED CONTROL at 6 WAA CI (Cyperus iria [8]; 30 GM.A.I./HA): 10
- WEED CONTROL at 6 WAA SZ (Sphenoclea zeylanica [9]; 10 GM.A.I./HA): 9.17
- WEED CONTROL at 6 WAA SZ (Sphenoclea zeylanica [9]; 15 GM.A.I./HA): 9.80
- WEED CONTROL at 6 WAA SZ (Sphenoclea zeylanica [9]; 20 GM.A.I./HA): 9.50
- WEED CONTROL at 6 WAA SZ (Sphenoclea zeylanica [9]; 30 GM.A.I./HA): 9.93
- PHYTO (1-9) (direct seeded rice [10]; 8.25 G AI/HA): 1.3
- PHYTO (1-9) (direct seeded rice [10]; 12.0 G AI/HA): 1
- PHYTO (1-9) (direct seeded rice [10]; 16.50 G AI/HA): 1.7
- % WEED COVER (WEED): 29%
